Experiments:
VEGF UTRs = experiment: luciferase reporter inhibition in B9 (VEGF 5' and 3' UTRs) versus B12 (control UTRs) stable cell lines; format: cell-based, human; settings: about 10^-1 nM to about 10^4 nM
Method: A monocistronic reporter construct (pLuc/vegf5′+3′UTR) is under the transcriptional control of the CMV promoter and contains the VEGF 5′ UTR driving the luciferase reporter upstream of the VEGF 3′UTR. Stable cell lines are generated by transfecting 293 cells with the pLuc/vegf5′+3′UTR construct. A stable cell line is cultured under hygromycin B selection to create clonal cell lines consistent with protocols well known in the art. After two weeks of selection, clonal cell lines are screened for luciferase activity. The luciferase activity of several clonal cell lines (hereafter “Clones”) are compared and normalized against total protein content. Clones are maintained under hygromycin B selection for more than three months with intermittent monitoring of luciferase activity. Clones are stable and maintain a high level of luciferase expression. Many Clones, for example, about twenty, may be compared to each other with respect to luciferase activity. […] Particular parameters for Clones are studied prior to selection for use in post-transcriptional, high-throughput screening (HTS). […]
Chemical libraries in excess of 150,000 compounds are screened by HTS with a Clone containing the monocistronic reporter construct, pLuc/vegf5′+3′UTR. […] Data is analyzed as a normal distribution, which is apparent from graphical and statistical analysis of skewness and kurtosis. […]

FGF-2 and IGF-1 = experiment: ELISA assays for expression of angiogenesis factors in HeLa cells; format: cell-based; settings: Homo sapiens, read-out: EC50 for inhibition of all these cytokines
Method: Compounds that target multiple angiogenesis factors (including VEGF) for the treatment of cancers are also identifiable. Several targets are used for these purposes, including TNF-α, FGF-2, G-CSF, IGF-1, PDGF, and HIF-1α. ELISA assays analyze levels of expression of these factors using commercially available kits from R&D Systems (Minneapolis, Minn.). UTR-specific HTS identified compounds are tested for their ability to inhibit the expression of a subset of these proteins, including FGF-2 and IGF-1 in HeLa cells.

EC50 (FGF-2 and IGF-1): 200 to 2000 nM
SMILES: COc1ccc(C[C@H](N)C(=O)N[C@H]2[C@@H](O)[C@H](n3cnc4c(N(C)C)ncnc43)O[C@@H]2CO)cc1 [puromycin]
difference in inhibition of luciferase expression between B9 and B12 cell lines (VEGF UTRs): No difference
